These results are taken from paper PMC4278221, “Territrem and Butyrolactone Derivatives from a Marine-Derived Fungus Aspergillus Terreus” (Marine Drugs, 2014).

The structures appear in SMILES notation. ≈ marks a conversion by molar mass, not a printed value. Like-named read-outs stand apart in the source and are kept apart here.

The target in one data set is T1, AChE (Homo sapiens, UniProt P22303).
T1 construct: purchased Sigma
Description: biochemical. Here is the method:
The inhibitory activities against AChE of compounds were investigated in vitro using the modified Ellman method. Briefly, the reaction mixture containing 20 μL of a different concentrations of the test compunds dissolved in DMSO solution, 450 μL of reaction buffer (0.01 M phosphate buffer, pH 7.0), 10 μL of 0.08-0.10 units/mL AChE (Sigma, one unit hydrolyzes […] of acetylcholineto choline and acetate per min at pH 7.0, 37 °C) and 10 μL of 0.01 M DTNB (Sigma, St. Louis, MO, USA) were filled in a microwell of 24-well polystyrene plate and incubated for 30 min at 37 °C. After preincubation, The reaction was started by adding 20 μL of 0.01 M ATCh (Sigma, St. Louis, MO, USA) solution in 0.01 M phosphate buffer (pH 7.0). Colorimetric measurements (412 nm) were performed on a enspire multimode microplate reader (varioskan flash, Thermo, Waltham, MA, USA). For determining the blank value, the 20 μL of test compound solution was instead of 20 μL of DMSO solution. Each concentration was analyzed in triplicate. […] IC50 values were determined graphically from the regression analysis of concentration-inhibition curves. The IC50 values are the mean ± standard deviations of three independent experiments.

The next data set deals with HSV-1. Nature of the data set: Anti-HSV-1 plaque reduction assay in Vero cell monolayers. In kind it is cell-based. Conditions: 72 h, read-out: Anti-HSV-1 IC50. Here is the method:
The antiviral activities of 1–17 towards HSV-1 were evaluated using plaque reduction assay for the first time.
(§1) Cytotoxic activity was evaluated using Vero cell lines by the MTT method. Anti-HSV-1 activity was determined by plaque assay using monolayer cultures of Vero cells in 24-well culture plates (Corning, New York, NY, USA). Virus suspension containing HSV-1 (30 plaque forming units (PFU)/well) was added to the cell wells and incubated at 37 °C with 5% CO2 for 2 h. The virus inoculum was then removed and overlay medium (maintenance medium containing 1% methylcellulose and various concentrations of tested compound) was added to each well. After another 72 h of incubation, the cell monolayers were fixed with 10% formalin and stained with 1% crystal violet. Plaques were counted and the percentage of inhibition was calculated according to literature. The concentration reducing plaque numbers by 50% was calculated by regression analysis of the dose–response curves generated from the plaque assay and was defined as 50% inhibitory concentration (IC50).

A further data set has as its system Vero cell line. Description: Cytotoxic activity against Vero cell line by MTT method. Type of data set: cell-based. Conditions: non-cytotoxic concentration (TC0). Here is the method: as §1
In general terms: Tetrazolium dyes change colour on reduction, which living cells bring about.

Data set [1] concerns barnacle Balanus amphitrite larvae. Nature of the data set: Barnacle Balanus amphitrite larval settlement bioassay (antifouling). The following applies: for EC50: Amphibalanus amphitrite, 24 h, read-out: Antifouling Against B. Amphitrite EC50; for LC50/EC50 values: antifouling activity at nontoxic concentrations, B. amphitrite larvae.
Description: Larval settlement bioassays were performed using sterile 24-well polystyrene plates. Tested samples were dissolved in DMSO to a concentration of 50 μg·mL^−1 for preliminary bioassay. […] About 20 competent larvae were added to each well in 1 mL of the test solution. The experiment was repeated twice with four replicateseach time. Wells containing only FSW with DMSO served as the controls. The plates were incubated at 27 °C for 24 h. The percentage of larval settlement was determined by counting the settled, live individuals under a dissecting microscope and expressing the result as a proportion of the total number of larvae in the well. Statistical calculations were performed with the SPSS software package.
[2] abbreviates: Human alphaherpesvirus 1, plaque reduction assay in Vero cells, under non-cytotoxic concentrations (TC0).

T1 sequence (P22303 32-614): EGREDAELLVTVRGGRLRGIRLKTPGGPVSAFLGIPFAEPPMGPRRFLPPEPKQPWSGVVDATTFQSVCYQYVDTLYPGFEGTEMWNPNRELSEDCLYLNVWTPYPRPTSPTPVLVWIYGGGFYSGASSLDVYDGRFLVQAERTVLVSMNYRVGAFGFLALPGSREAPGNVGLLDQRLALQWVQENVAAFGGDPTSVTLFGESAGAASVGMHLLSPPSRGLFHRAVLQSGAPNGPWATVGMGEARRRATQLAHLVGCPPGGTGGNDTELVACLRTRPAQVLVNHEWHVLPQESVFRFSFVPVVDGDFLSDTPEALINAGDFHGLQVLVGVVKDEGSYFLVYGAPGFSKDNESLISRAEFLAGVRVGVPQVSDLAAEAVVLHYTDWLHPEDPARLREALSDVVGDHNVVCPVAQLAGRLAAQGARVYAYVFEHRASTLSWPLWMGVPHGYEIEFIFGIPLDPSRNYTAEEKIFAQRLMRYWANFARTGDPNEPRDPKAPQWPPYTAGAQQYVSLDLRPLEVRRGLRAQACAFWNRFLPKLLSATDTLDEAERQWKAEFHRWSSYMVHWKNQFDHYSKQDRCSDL

Take `COc1ccc(-c2cc3c(c(=O)o2)C[C@]2(O)[C@@]4(C)C(=O)C=CC(C)(C)[C@]4(O)CC[C@@]2(C)O3)cc1OC` [Compound 6, arisugacin A]: the IC50 (usually the midpoint of a concentration-inhibition curve) on AChE was found to be 0.0119 ± 0.0021 µM; with HSV-1 (Human alphaherpesvirus 1, Vero), 6.34 ± 0.4 mg/L (≈ 12.8 µM). For the same compound, in the data set on Vero cell line, the “Cytotoxicity Against Vero TC0” value was determined as 100 µg/mL.

For `Nc1nc2c(ncn2COCCO)c(=O)[nH]1` [Acyclovir, reference compound], the IC50 in the data set on HSV-1 (setting [2]) came out at 34.5 ± 0.7 mg/L (≈ 153 µM). For the same compound, the “Cytotoxicity Against Vero TC0” value with Vero cell line was above 1000 µg/mL.

The compound `COc1ccc(-c2cc3c(c(=O)o2)C[C@]2(O)[C@@]4(C)CCC(=O)C(C)(C)[C@]4(O)CC[C@@]2(C)O3)cc1` [Compound 8, terreulactone C] came in with an IC50 on AChE of 0.05 ± 0.0015 µM. Besides, the “Cytotoxicity Against Vero TC0” value in the data set with Vero cell line was above 25 µg/mL.

Consider `COc1ccc(-c2cc3c(c(=O)o2)C[C@]2(O)[C@@]4(C)[C@@H](O)C[C@@H](OC(C)=O)C(C)(C)[C@]4(O)CC[C@@]2(C)O3)cc1` [Compound 7, arisugacin H], for which, on AChE (modified Ellman method, value printed in μM in text, read-out: Anti-AChE IC50), the IC50 was 5.7 ± 0.8 µM. For the same compound, the “Cytotoxicity Against Vero TC0” value in the data set on Vero cell line is 100 µg/mL.

In the case of `COC(=O)[C@]1(Cc2ccc(O)c(CCC(C)(C)O)c2)OC(=O)C(O)=C1c1ccc(O)cc1` [Compound 15, aspernolide B], in data set [1], the EC50 (as a rule, the concentration needed to bring the measured effect to its halfway point) turned out to be 16.1 ± 0.6 mg/L (≈ 36.4 µM) and the LC50/EC50 values was above 100 mg/L.

As for `COC(=O)[C@]1(Cc2ccc3c(c2)CCC(C)(C)O3)OC(=O)C(O)=C1c1ccc(O)cc1` [Compound 12, aspernolide A], in data set [1], the EC50 was 7.4 ± 0.6 mg/L (≈ 17.4 µM) and the LC50/EC50 values was above 100 mg/L. Further, in the data set on HSV-1 (setting [2]), the IC50 came to 28.9 ± 1.8 mg/L (≈ 68.1 µM). For the same compound, the “Cytotoxicity Against Vero TC0” value in the data set with Vero cell line was 100 µg/mL.

`COc1cc(-c2cc3c(c(=O)o2)C[C@]2(O)[C@@]4(C)C(=O)C=CC(C)(C)[C@]4(O)CC[C@@]2(C)O3)ccc1O` [Compound 2, territrem E]: at AChE (modified Ellman method, pH 7.0, 37 °C, mean ± SD of three independent experiments, read-out: Anti-AChE IC50), the IC50 amounted to 0.0045 ± 0.0006 µM. For the same compound, the “Cytotoxicity Against Vero TC0” value in the data set on Vero cell line was found to be 200 µg/mL.

As to `COC(=O)[C@]1(Cc2ccc3c(c2)C[C@H](O)C(C)(C)O3)OC(=O)C(O)=C1c1ccc(O)cc1` [Compound 11, butyrolactone V], in data set [1], the EC50 turned out to be 22.1 ± 0.8 mg/L (≈ 50.2 µM) and the LC50/EC50 values was above 100 mg/L.

As for `COc1cc(-c2cc3c(c(=O)o2)C[C@]2(O)[C@@]4(C)C(=O)C=CC(C)(C)[C@]4(O)CC[C@@]2(C)O3)cc(O)c1OC` [Compound 1, territrem D], in data set [1], the EC50 turned out to be 12.9 ± 0.5 mg/L (≈ 25.2 µM) and the LC50/EC50 values is above 100 mg/L. The same compound came in with an IC50 against AChE of 0.0042 ± 0.0006 µM. In the data set with Vero cell line, the “Cytotoxicity Against Vero TC0” value was 25 µg/mL.

Consider `COc1cc(-c2cc3c(c(=O)o2)C[C@]2(O)[C@@]4(C)C(=O)C=CC(C)(C)[C@]4(O)CC[C@@]2(C)O3)cc(OC)c1OC` [Compound 4, territrem B], for which, on AChE, the midpoint of inhibition, the IC50, lay at 0.0042 ± 0.0006 µM. In addition, the “Cytotoxicity Against Vero TC0” value with Vero cell line is 25 µg/mL.

Consider `COc1cc(-c2cc3c(c(=O)o2)C[C@]2(O)[C@@]4(C)C(=O)C=CC(C)(C)[C@]4(O)CC[C@@]2(C)O3)cc(OC)c1O` [Compound 5, territrem C], for which the IC50 on AChE is 0.0201 ± 0.0033 µM. Further, the “Cytotoxicity Against Vero TC0” value with Vero cell line is above 25 µg/mL.

For the compound `COC1(Cc2ccc(O)cc2)OC(=O)C(O)=C1c1ccc(O)cc1` (stereo not shown) [Compound 10, isobutyrolactone II], in the data set with HSV-1 (setting [2]), the IC50 was found to be 21.8 ± 1.8 mg/L (≈ 66.4 µM). The “Cytotoxicity Against Vero TC0” value in the data set on Vero cell line was found to be 200 µg/mL.

As to `COc1ccc(-c2cc3c(c(=O)o2)C[C@H]2[C@@](C)(CC[C@@]4(O)C(C)(C)OC(=O)CC[C@]24C)O3)cc1` [Compound 3, 11a-dehydroxyisoterreulactone A], the IC50 in the data set on HSV-1 (setting [2]) was 16.4 ± 0.6 mg/L (≈ 35 µM). For the same compound, the “Cytotoxicity Against Vero TC0” value in the data set with Vero cell line is 200 µg/mL.
